# Laboratory results: US10472395B2, “Cyclic peptide analogs and conjugates thereof” (Sirenas LLC, priority 2015, dated 2019)
# pIC50: −log10 of the molar value. Numbered stars: 1 amine (or outer) side, 2 acyl side, 3 side chain; on linkers, the order of the positions; unused ones are H or OH. Bridge positions count the residues as written; N and C are the ends. Square brackets hold non-standard residues; d marks the D form. Peptide text beside a SMILES is read from it. ξ: configuration not given here. X2 = C/C(=C\CCC[C@@H](O[*:2])C(C)C)C(=O)[*:1]; X7 = C/C(=C\CCC[C@H](O[*:2])C(C)C)C(=O)[*:1]; X1 = C/C(=C\CC[C@@H](C)CO[*:2])C(=O)[*:1]; X5 = C/C(=C\CC[C@H](C)CO[*:2])C(=O)[*:1]; dNMeF = CN[C@H](Cc1ccccc1)C(=O)O; Ile(3ξ) = CCC(C)[C@H](N)C(=O)O; dHica = CC(C)C[C@@H](O)C(=O)O; dNMeA = CN[C@H](C)C(=O)O; Sar = CNCC(=O)O
# Experiments:
# [1] = system: BT-474 human mammary gland ductal carcinoma cells; assay: Inhibitory response of test compounds against BT-474 cells (Cell Titer-Glo, 72 h); assay type: cell-based; conditions: Homo sapiens
# Experimental: (§1) BT-474 human mammary gland ductal carcinoma cells were seeded in a clear polystyrene 96-well microculture plate (Corning® Costar® 96-well flat bottom plate, Cat.#3997) in a total volume of 90 μL/well. After 24 hours of incubation in a humidified incubator at 37° C. with 5% CO2 and 95% air, 10 μL of 10×, serially diluted test agents in growth medium were added to each well (10 pt dose response curve, highest concentration 10 μM of test agent). After 72 hours of culture in a humidified incubator at 37° C., in an atmosphere of 5% CO2 and 95% air, the plated cells and Cell Titer-Glo® (Promega G7571) reagents were brought to room temperature to equilibrate for 30 minutes. 100 μL of Cell Titer-Glo® reagent was added to each well. The plate was shaken for two minutes and then left to equilibrate for ten minutes. The media/Cell Titer-Glo® reagent was transferred to a white polystyrene 96-well microculture plate (Corning® Costar® 96-well flat bottom plate, Cat.#3917) before reading luminescence on a Tecan GENios microplate reader.
# (§2) Percent inhibition of cell growth was calculated relative to untreated control wells. The IC50 value for the test agents was determined using Prism 6.05 by curve-fitting of the data using the following four parameter-logistic equation:
# (§3) [formula] where Top is the maximal % of control absorbance, Bottom is the minimal % of control absorbance at the highest agent concentration, Y is the % of control absorbance, X is the agent concentration, IC50 is the concentration of agent that inhibits cell growth by 50% compared to the control cells, and n is the slope of the curve.
# HCC1954 cells = assay: Inhibitory response of test compounds against HCC1954 cells (method analogous to BT-474); assay type: cell-based; conditions: Homo sapiens
# Experimental: as §1, §2, §3
# Inhibitory response of test compounds against HCC1954 cells was determined using a method analogous to that used for BT-474 cells.
Compound,pIC50 [1],pIC50 (HCC1954 cells)
CCC(C)[C@@H]1NC(=O)CN(C)C(=O)[C@@H](Cc2ccccc2)N(C)C(=O)[C@H](C)NC(=O)[C@@H](CC(C)C)OC(=O)/C(C)=C/CCC[C@@H](C(C)C)OC(=O)[C@@H](C)NC1=O (some centres unmarked) [Compound 86] ([dHica]A[dNMeF][Sar][Ile(3ξ)][dA]; linker N-C via X7),5.00 to 6.70,5.00 to 6.70
CCC(C)[C@@H]1NC(=O)CN(C)C(=O)[C@@H](Cc2ccccc2)N(C)C(=O)[C@H](C)NC(=O)[C@@H](CC(C)C)OC(=O)/C(C)=C/CCC[C@H](C(C)C)OC(=O)[C@@H](C)NC1=O (some centres unmarked) [Compound 87] ([dHica]A[dNMeF][Sar][Ile(3ξ)][dA]; linker N-C via X2),5.00 to 6.70,5.00 to 6.70
CCC(C)[C@@H]1NC(=O)CN(C)C(=O)[C@@H](Cc2ccccc2)N(C)C(=O)[C@H](C)NC(=O)[C@@H](CC(C)C)OC(=O)/C(C)=C/CCC[C@@H](C(C)C)OC(=O)[C@@H](C)N(C)C1=O (some centres unmarked) [Compound 88] ([dHica]A[dNMeF][Sar][Ile(3ξ)][dNMeA]; linker N-C via X7),5.00 to 6.70,5.00 to 6.70
CCC(C)[C@@H]1NC(=O)CN(C)C(=O)[C@@H](Cc2ccccc2)N(C)C(=O)[C@H](C)NC(=O)[C@@H](CC(C)C)OC(=O)/C(C)=C/CCC[C@H](C(C)C)OC(=O)[C@@H](C)N(C)C1=O (some centres unmarked) [Compound 89] ([dHica]A[dNMeF][Sar][Ile(3ξ)][dNMeA]; linker N-C via X2),6.70 to 7.70,5.00 to 6.70
C/C=C(\C)[C@H]1OC(=O)[C@@H](C)NC(=O)[C@H](C(C)CC)NC(=O)CN(C)C(=O)[C@@H](Cc2ccccc2)N(C)C(=O)[C@H](C)NC(=O)[C@@H](CC(C)C)OC(=O)/C(C)=C/CC[C@@H]1C (some centres unmarked) [Compound 90],> 7.70,> 7.70
CCC(C)[C@@H]1NC(=O)CN(C)C(=O)[C@@H](Cc2ccccc2)N(C)C(=O)[C@H](C)NC(=O)[C@@H](CC(C)C)OC(=O)/C(C)=C/CC[C@H](C)COC(=O)[C@@H](C)NC1=O (some centres unmarked) [Compound 91] ([dHica]A[dNMeF][Sar][Ile(3ξ)][dA]; linker N-C via X5),5.00 to 6.70,5.00 to 6.70
CCC(C)[C@@H]1NC(=O)CN(C)C(=O)[C@@H](Cc2ccccc2)N(C)C(=O)[C@H](C)NC(=O)[C@@H](CC(C)C)OC(=O)/C(C)=C/CC[C@@H](C)COC(=O)[C@@H](C)NC1=O (some centres unmarked) [Compound 92] ([dHica]A[dNMeF][Sar][Ile(3ξ)][dA]; linker N-C via X1),5.00 to 6.70,5.00 to 6.70
C/C=C(\C)[C@H]1OC(=O)[C@@H](C)NC(=O)[C@H](C(C)CC)NC(=O)CN(C)C(=O)[C@@H](Cc2ccccc2)N(C)C(=O)[C@H](C)NC(=O)[C@@H](CC(C)C)OC(=O)/C(C)=C/C[C@H](OC(=O)N(C)CCN(C)C(=O)OC(C)(C)C)[C@@H]1C (some centres unmarked) [Compound 93],> 7.70,> 7.70
C/C=C(\C)[C@H]1OC(=O)[C@@H](C)NC(=O)[C@H](C(C)CC)NC(=O)CN(C)C(=O)[C@@H](Cc2ccccc2)N(C)C(=O)[C@H](C)NC(=O)[C@@H](CC(C)C)OC(=O)/C(C)=C/C[C@H](OCSC)[C@@H]1C (some centres unmarked) [Compound 94],> 7.70,> 7.70
C/C=C(\C)[C@H]1OC(=O)[C@@H](C)NC(=O)[C@H](C(C)CC)NC(=O)CN(C)C(=O)[C@@H](Cc2ccc(OC)cc2)N(C)C(=O)[C@H](C)NC(=O)[C@@H](CC(C)C)OC(=O)/C(C)=C/C=C/[C@@H]1C (some centres unmarked) [Compound 95],> 7.70,6.70 to 7.70
C/C=C(\C)[C@H]1OC(=O)[C@@H](C)NC(=O)[C@H]([C@H](C)CC)NC(=O)CN(C)C(=O)[C@@H](Cc2ccccc2)N(C)C(=O)[C@H](CCCCNC(=O)OC(C)(C)C)NC(=O)[C@@H](CC(C)C)OC(=O)/C(C)=C/C[C@H](O)[C@@H]1C [Compound 96],> 7.70,> 7.70
C/C=C(\C)[C@H]1OC(=O)[C@@H](C)NC(=O)[C@H]([C@H](C)CC)NC(=O)CN(C)C(=O)[C@@H](Cc2ccc(OCc3ccccc3)cc2)N(C)C(=O)[C@H](C)NC(=O)[C@@H](CC(C)C)OC(=O)/C(C)=C/C=C/[C@@H]1C [Compound 98],> 7.70,> 7.70
C/C=C(\C)[C@H]1OC(=O)[C@@H](C)NC(=O)[C@H](C(C)CC)NC(=O)CN(C)C(=O)[C@@H](Cc2ccc(O)cc2)N(C)C(=O)[C@H](C)NC(=O)[C@@H](CC(C)C)OC(=O)/C(C)=C/C=C/[C@@H]1C (some centres unmarked) [Compound 99],6.70 to 7.70,5.00 to 6.70
